Consider one compound from ChEMBL document CHEMBL5726056, “2-oxo-3,4-dihydroquinolin-6-yl sulphonamide CPDS and their use as plant growth regulators” (2019).

A short description of test [1]: (§1) PP2C Activity Assay: HAB1 and PYL proteins were expressed and purified as described in Park et al. ((2009) Science 324(5930):1068-1071), with minor modifications. To obtain GST-HAB1, the HAB1 cDNA was cloned into pGex-2T. Expression was conducted in BL21[DE3]pLysS host cells. Transformed cells were pre-cultured overnight, transferred to LB medium and cultured at 30° C. to culture A600 of ¿0.5.The culture was then cooled on ice and MnCl2 added to 4 mM and IPTG added to 0.3 mM. After 16 hours incubation at 15° C., cells were harvested and recombinant proteins were purified on glutathione agarose as described in Park et al. To obtain 6×His-PYL receptor fusion proteins, expression constructs previously described by Okamoto et al. 2013, (PNAS 110(29): 12132-12137) were used. ABA receptors were expressed and purified as described above.For the values shown in Table B5, PP2C activity assays using recombinant receptors and PP2Cs were carried out as follows: purified proteins were pre-incubated in 160 μl assay buffer containing 100 mM Tris-HCl-pH7.9, 100 mM NaCl, 3 μg bovine serum albumin, 0.1% 2-mercaptoethanol, 1 mM MnCl2 with ABA or agonists (compounds of the present invention) for 30 minutes at room temperature. […].

Test [2] is described as follows: as §1. The source holds these as a separate data set.

As usually defined, the IC50 is the concentration at which inhibition is half-maximal. Regarding `CCN1C(=O)CC(C)c2cc(NS(=O)(=O)Cc3ccc(C4CC4)cc3)ccc21` (configuration not stated), the IC50 in test [1] came out at 200 nM; in test [2], 101 nM.
